According to ChEMBL document CHEMBL5370535, “Thiazolyl hydrazineylidenyl indolones as unique potential multitargeting broad-spectrum antimicrobial agents” (Eur J Med Chem, 2023):
In brackets after ≈: the same amount, converted by molar mass.

What was measured:
Type in all cases: functional
Candida tropicalis = experiment: Antifungal activity against Candida tropicalis assessed as inhibition of fungal growth incubated for 24 hrs by CLSI based two serial dilution assay
Staphylococcus aureus [1] = experiment: Antibacterial activity against Staphylococcus aureus 25923 assessed as bacterial growth inhibition incubated for 24 hrs by CLSI based two serial dilution assay
Acinetobacter baumannii = experiment: Antibacterial activity against Acinetobacter baumannii assessed as bacterial growth inhibition incubated for 24 hrs by CLSI based two serial dilution assay
Candida albicans [2] = experiment: Antifungal activity against Candida albicans ATCC 90023 assessed as inhibition of fungal growth incubated for 24 hrs by CLSI based two serial dilution assay
Candida albicans [3] = experiment: Antifungal activity against Candida albicans assessed as inhibition of fungal growth incubated for 24 hrs by CLSI based two serial dilution assay
Staphylococcus aureus [4] = experiment: Antibacterial activity against methicillin-resistant Staphylococcus aureus assessed as bacterial growth inhibition incubated for 24 hrs by CLSI based two serial dilution assay
Aspergillus fumigatus = experiment: Antifungal activity against Aspergillus fumigatus assessed as inhibition of fungal growth incubated for 24 hrs by CLSI based two serial dilution assay
Pseudomonas aeruginosa [5] = experiment: Antibacterial activity against Pseudomonas aeruginosa assessed as bacterial growth inhibition incubated for 24 hrs by CLSI based two serial dilution assay
Enterococcus faecalis = experiment: Antibacterial activity against Enterococcus faecalis assessed as bacterial growth inhibition incubated for 24 hrs by CLSI based two serial dilution assay
Klebsiella pneumoniae = experiment: Antibacterial activity against Klebsiella pneumoniae assessed as bacterial growth inhibition incubated for 24 hrs by CLSI based two serial dilution assay
Candida parapsilosis = experiment: Antifungal activity against Candida parapsilosis ATCC 22019 assessed as inhibition of fungal growth incubated for 24 hrs by CLSI based two serial dilution assay; conditions: Lodderomyces parapsilosis
Pseudomonas aeruginosa [6] = experiment: Antibacterial activity against Pseudomonas aeruginosa ATCC 27853 assessed as bacterial growth inhibition incubated for 24 hrs by CLSI based two serial dilution assay
Escherichia coli [7] = experiment: Antibacterial activity against Escherichia coli 25922 assessed as bacterial growth inhibition incubated for 24 hrs by CLSI based two serial dilution assay
Escherichia coli [8] = experiment: Antibacterial activity against Escherichia coli assessed as bacterial growth inhibition incubated for 24 hrs by CLSI based two serial dilution assay
Staphylococcus aureus [9] = experiment: Antibacterial activity against Staphylococcus aureus assessed as bacterial growth inhibition incubated for 24 hrs by CLSI based two serial dilution assay
Staphylococcus aureus [10] = experiment: Antibacterial activity against Staphylococcus aureus 29213 assessed as bacterial growth inhibition incubated for 24 hrs by CLSI based two serial dilution assay
Staphylococcus aureus [11] = experiment: Induction of resistance development in methicillin-resistant Staphylococcus aureus assessed as fold increase in MIC measured after consecutive passages for 24 hrs by serial passaging assay

| SMILES | MIC (Candida tropicalis) [µM] | MIC (Staphylococcus aureus [1]) [µM] | MIC (Acinetobacter baumannii) [µM] | MIC (Candida albicans [2]) [µM] | MIC (Candida albicans [3]) [µM] | MIC (Staphylococcus aureus [4]) [µM] | MIC (Aspergillus fumigatus) [µM] | MIC (Pseudomonas aeruginosa [5]) [µM] | MIC (Enterococcus faecalis) [µM] | MIC (Klebsiella pneumoniae) [µM] | MIC (Candida parapsilosis) [µM] | MIC (Pseudomonas aeruginosa [6]) [µM] | MIC (Escherichia coli [7]) [µM] | MIC (Escherichia coli [8]) [µM] | MIC (Staphylococcus aureus [9]) [µM] | MIC (Staphylococcus aureus [10]) [µM] | fold change (FC) (Staphylococcus aureus [11]) |
| --- | --- | --- | --- | --- | --- | --- | --- | --- | --- | --- | --- | --- | --- | --- | --- | --- | --- |
| CCCCN1C(=O)/C(=N\Nc2nccs2)c2cc(F)ccc21 | 4 (≈ 1.27 µg/mL) | 4 (≈ 1.27 µg/mL) | 1 (≈ 0.318 µg/mL) | 1 (≈ 0.318 µg/mL) | 1 (≈ 0.318 µg/mL) | 2 (≈ 0.637 µg/mL) | 4 (≈ 1.27 µg/mL) | 1 (≈ 0.318 µg/mL) | 4 (≈ 1.27 µg/mL) | 1 (≈ 0.318 µg/mL) | 1 (≈ 0.318 µg/mL) | 4 (≈ 1.27 µg/mL) | 1 (≈ 0.318 µg/mL) | 1 (≈ 0.318 µg/mL) | 4 (≈ 1.27 µg/mL) | 1 (≈ 0.318 µg/mL) | – |
| CCCCN1C(=O)/C(=N\Nc2nc(C)cs2)c2ccccc21 | 4 (≈ 1.26 µg/mL) | 8 (≈ 2.52 µg/mL) | 4 (≈ 1.26 µg/mL) | 1 (≈ 0.314 µg/mL) | 256 (≈ 80.5 µg/mL) | 2 (≈ 0.629 µg/mL) | 64 (≈ 20.1 µg/mL) | 1 (≈ 0.314 µg/mL) | 16 (≈ 5.03 µg/mL) | 4 (≈ 1.26 µg/mL) | 256 (≈ 80.5 µg/mL) | 512 (≈ 161 µg/mL) | 4 (≈ 1.26 µg/mL) | 16 (≈ 5.03 µg/mL) | 32 (≈ 10.1 µg/mL) | 32 (≈ 10.1 µg/mL) | – |
| CCn1cc(C(=O)O)c(=O)c2cc(F)c(N3CCNCC3)cc21 [NORFLOXACIN] | – | 1 (≈ 0.319 µg/mL) | 8 (≈ 2.55 µg/mL) | – | – | 4 (≈ 1.28 µg/mL) | – | 2 (≈ 0.639 µg/mL) | 4 (≈ 1.28 µg/mL) | 4 (≈ 1.28 µg/mL) | – | 0.5 (≈ 0.16 µg/mL) | 8 (≈ 2.55 µg/mL) | 16 (≈ 5.11 µg/mL) | 1 (≈ 0.319 µg/mL) | 2 (≈ 0.639 µg/mL) | 4 |
| CCCCCCCCCCCCN1C(=O)/C(=N\Nc2nccs2)c2ccccc21 | 16 (≈ 6.6 µg/mL) | 4 (≈ 1.65 µg/mL) | 64 (≈ 26.4 µg/mL) | 128 (≈ 52.8 µg/mL) | 32 (≈ 13.2 µg/mL) | 128 (≈ 52.8 µg/mL) | 32 (≈ 13.2 µg/mL) | 16 (≈ 6.6 µg/mL) | 4 (≈ 1.65 µg/mL) | 32 (≈ 13.2 µg/mL) | 64 (≈ 26.4 µg/mL) | 16 (≈ 6.6 µg/mL) | 32 (≈ 13.2 µg/mL) | 64 (≈ 26.4 µg/mL) | 32 (≈ 13.2 µg/mL) | 4 (≈ 1.65 µg/mL) | – |
| C=CCN1C(=O)/C(=N\Nc2nccs2)c2ccccc21 | 32 (≈ 9.1 µg/mL) | 128 (≈ 36.4 µg/mL) | 512 (≈ 146 µg/mL) | 512 (≈ 146 µg/mL) | 256 (≈ 72.8 µg/mL) | 512 (≈ 146 µg/mL) | 4 (≈ 1.14 µg/mL) | 512 (≈ 146 µg/mL) | 64 (≈ 18.2 µg/mL) | 256 (≈ 72.8 µg/mL) | 128 (≈ 36.4 µg/mL) | 16 (≈ 4.55 µg/mL) | 512 (≈ 146 µg/mL) | 64 (≈ 18.2 µg/mL) | 64 (≈ 18.2 µg/mL) | 128 (≈ 36.4 µg/mL) | – |
| CCCCCN1C(=O)/C(=N\Nc2nccs2)c2ccccc21 | 16 (≈ 5.03 µg/mL) | 16 (≈ 5.03 µg/mL) | 4 (≈ 1.26 µg/mL) | 4 (≈ 1.26 µg/mL) | 4 (≈ 1.26 µg/mL) | 4 (≈ 1.26 µg/mL) | 4 (≈ 1.26 µg/mL) | 2 (≈ 0.629 µg/mL) | 4 (≈ 1.26 µg/mL) | 4 (≈ 1.26 µg/mL) | 4 (≈ 1.26 µg/mL) | 16 (≈ 5.03 µg/mL) | 4 (≈ 1.26 µg/mL) | 16 (≈ 5.03 µg/mL) | 4 (≈ 1.26 µg/mL) | 4 (≈ 1.26 µg/mL) | – |
| CCCCN1C(=O)/C(=N\Nc2nccs2)c2c(Cl)cc(Cl)cc21 | 1 (≈ 0.369 µg/mL) | 1 (≈ 0.369 µg/mL) | 512 (≈ 189 µg/mL) | 2 (≈ 0.739 µg/mL) | 0.5 (≈ 0.185 µg/mL) | 1 (≈ 0.369 µg/mL) | 128 (≈ 47.3 µg/mL) | 2 (≈ 0.739 µg/mL) | 4 (≈ 1.48 µg/mL) | 1 (≈ 0.369 µg/mL) | 256 (≈ 94.5 µg/mL) | 512 (≈ 189 µg/mL) | 1 (≈ 0.369 µg/mL) | 32 (≈ 11.8 µg/mL) | 2 (≈ 0.739 µg/mL) | 2 (≈ 0.739 µg/mL) | – |
| CCCCN1C(=O)/C(=N\Nc2nccs2)c2cc(Br)ccc21 | 64 (≈ 24.3 µg/mL) | 32 (≈ 12.1 µg/mL) | 16 (≈ 6.07 µg/mL) | 64 (≈ 24.3 µg/mL) | 32 (≈ 12.1 µg/mL) | 16 (≈ 6.07 µg/mL) | 16 (≈ 6.07 µg/mL) | 8 (≈ 3.03 µg/mL) | 32 (≈ 12.1 µg/mL) | 256 (≈ 97.1 µg/mL) | 32 (≈ 12.1 µg/mL) | 256 (≈ 97.1 µg/mL) | 16 (≈ 6.07 µg/mL) | 16 (≈ 6.07 µg/mL) | 64 (≈ 24.3 µg/mL) | 16 (≈ 6.07 µg/mL) | – |
| O=C1/C(=N\Nc2nccs2)c2ccccc2N1Cc1ccc(Cl)cc1Cl | 64 (≈ 25.8 µg/mL) | 4 (≈ 1.61 µg/mL) | 64 (≈ 25.8 µg/mL) | 16 (≈ 6.45 µg/mL) | 32 (≈ 12.9 µg/mL) | 128 (≈ 51.6 µg/mL) | 16 (≈ 6.45 µg/mL) | 64 (≈ 25.8 µg/mL) | 64 (≈ 25.8 µg/mL) | 128 (≈ 51.6 µg/mL) | 32 (≈ 12.9 µg/mL) | 64 (≈ 25.8 µg/mL) | 128 (≈ 51.6 µg/mL) | 64 (≈ 25.8 µg/mL) | 4 (≈ 1.61 µg/mL) | 2 (≈ 0.807 µg/mL) | – |
